For this experiment, the system named is MDA-MB-468 breast. Put plainly: NCI-60 cell line screen, 48 h.

Molecules are shown by their SMILES. Where “and” joins values, the source holds several entries; their conditions need not be identical. Equal values may be shown once.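 All cell lines were grown in 96-well plates and treated with compound for 48 hours. Abbreviation: GI50, concentration required for 50% inhibition of growth. Definition used: TGI = concentration required for complete inhibition of growth.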 Bounds are passed on as bounds.

With `CNCCNc1nc2ccccc2c2c(=O)c3cc(F)ccc3sc12`, the GI50 is 1.7 µM and the TGI worked out at 3.46 µM.

Consider `Cn1cc(C2=C(c3cn(C)c4cc(N)ccc34)C(=O)NC2=O)c2ccccc21`, for which the GI50 is 1.56 µM and the TGI came to 7.97 µM.

For `CC(C)(C)n1cc(-c2ccnc(NCCCNS(=O)(=O)c3ccc(Br)cc3)c2)c(-c2cccc(O)c2)n1`, the GI50 is 2.1 µM and the TGI came out at 4.8 µM.

`C[C@]12CC[C@@H](OC(=O)N(CCCl)N=O)C[C@@H]1CC[C@@H]1[C@@H]2CC[C@]2(C)C(=O)CC[C@@H]12`: the GI50 is 0.867 µM and the TGI came to 12.3 µM.

Turning to `COc1ccc(/C=C\c2cc(OC)c(OC)c(OC)c2)c(NS(=O)(=O)c2ccc(Cl)cc2)c1O`, the GI50 is 0.0367 µM and the TGI stood at 15 µM.

For `Cc1cnc(Nc2ccc(OCCN3CCCC3)cc2)nc1Nc1cccc(S(=O)(=O)NC(C)(C)C)c1`, the GI50 is 0.0741 µM and 0.483 µM; the TGI is 0.792 µM and 3.11 µM.

On to `Oc1c(Cl)cc(Cl)cc1Sc1cc(Cl)cc(Cl)c1O`, for which the GI50 was 2.81 µM and 2.59 µM; the TGI was 8.85 µM and 7.83 µM.

With `C[PH+](c1nc2ccccc2nc1[PH+](C)C(C)(C)C)C(C)(C)C.C[PH+](c1nc2ccccc2nc1[PH+](C)C(C)(C)C)C(C)(C)C.[Au+].[Cl-]` (centres undefined), the GI50 was 0.0248 µM and the TGI amounted to 0.0904 µM.

As to `Oc1c(CN2CCCC2)cc(CSCc2ccccc2)c2cccnc12`, the GI50 is 1.2 µM and the TGI worked out at 3.24 µM.

Turning to `COc1cc2c(c(OC)c1OC)-c1ccc(O)c(=O)cc1[C@@H](NC(C)=O)CC2`, the GI50 was 4.11 µM and the TGI was determined as 27.5 µM.

On to `CCOC(=O)Nc1nc2cc(OCC)ccc2s1`, for which the GI50 is 2.62 µM and the TGI was more than 100 µM.

Consider `CC(C(=O)O)c1ccc(-c2ccccc2)c(F)c1` (centres undefined), for which the GI50 was more than 100 µM and the TGI was more than 100 µM.

Turning to `CC(=O)c1cccc(-c2cccc(-c3ccn(CCN4CCOCC4)n3)c2)c1`, the GI50 is 15.2 µM and the TGI was more than 20 µM.

For the compound `CC[C@@]12C=CCN3CC[C@]4(c5cc(NC(=O)COc6cc(OCC(=O)Nc7cc8c(cc7OC)N(C)[C@H]7[C@@](O)(C(=O)OC)[C@H](OC(C)=O)[C@]9(CC)C=CCN%10CC[C@]87[C@@H]%109)cc7oc(-c8ccccc8)cc(=O)c67)c(OC)cc5N(C)[C@@H]4[C@](O)(C(=O)OC)[C@H]1OC(C)=O)[C@H]32`, the GI50 was 2.25 µM and the TGI was determined as 8.87 µM.

Take `NC(=O)c1c(NC(=O)c2ccccc2C(F)(F)F)sc2c1CCC(=O)C2`: the GI50 was 2.25 µM and the TGI came out at 6.09 µM.

Regarding `CCCCCCNC(=O)Oc1ccc(/C(=C(/C)Cc2ccc(OC)cc2)c2ccc(OCCN(C)C)cc2)cc1`, the GI50 is 5.4 µM and the TGI was 10.6 µM.

With `CC(=O)c1cc(-c2ccccc2N)n(-c2ccc3c(c2)OCO3)c1C`, the GI50 was 0.0507 µM and the TGI was more than 72.1 µM.

For the compound `COc1ccc([C@@H](O)c2cc(-c3ncnc4cc(N5CCOCC5)ccc34)c(F)cc2Cl)nn1`, the GI50 is 1.69 µM and the TGI amounted to 8.26 µM.

In the case of `CC1(C)[C@@H](OC(N)=O)C=C[C@]2(CO)[C@H]3CC[C@]4(C)[C@@H](c5ccc(=O)oc5)[C@@H](Cl)C[C@]4(O)C3=CC[C@@H]12`, the GI50 was 0.0149 µM and the TGI was found to be 0.0674 µM.

As for `C/C(=C(/c1ccc(O)cc1)c1ccc(Cl)cc1)c1ccccc1`, the GI50 is 0.601 µM and the TGI was found to be 2.02 µM.

In the case of `Cc1cc2nc(-c3c(N)ncc(C#N)c3-c3ccc(Cl)cc3)[nH]c2cc1C`, the GI50 is 12.4 µM and the TGI is 51.5 µM.

`COc1cc2ncnc3c2cc1OCCCCCN(C)Cc1ccc(Br)cc1N3`: the GI50 was 0.0463 µM and 0.0393 µM; the TGI is 0.4 µM and 0.453 µM.

As for `CC12CC=CCC1CCC1C2CCC2(C)C(c3ccc(=O)oc3)CCC12O` (centres undefined), the GI50 is 0.276 µM and the TGI worked out at 0.858 µM.

With `COc1cc(/C=C2\CN(C(=O)CCN3CCC(=NO)CC3)C/C(=C\c3cc(OC)c(OC)c(OC)c3)C2=O)cc(OC)c1OC`, the GI50 is 0.342 µM and the TGI came to 1.27 µM.

Consider `CCCCCCNC(=O)n1cc(F)c(=O)[nH]c1=O`, for which the GI50 is 10 µM and the TGI stood at 26.3 µM.

Consider `COc1ccc(NC(=O)n2nc(/C=C\c3ccc(O)c(OC)c3)cc2/C=C\c2ccc(O)c(OC)c2)cc1`, for which the GI50 is 3.55 µM and the TGI came out at 21.6 µM.

With `CCN1C(=O)N(CC)C2SC(N/N=C/c3ccc(F)cc3)=NC21` (centres undefined), the GI50 is 0.4 µM.

With `CCCCN(CCCC)CCc1c(C)cc(C)c(CCN(CCCC)CCCC)c1O`, the GI50 was 1.83 µM and the TGI is 5.51 µM.

Consider `COC(=O)[C@H]1[C@H]2C[C@@H]3c4[nH]c5cc(OC)ccc5c4CCN3C[C@H]2C[C@@H](OC(=O)/C=C/c2cc(OC)c(OC)c(OC)c2)[C@@H]1OC`, for which the GI50 was 3.27 µM and the TGI was 11.6 µM.

Consider `N=c1ccc2nc3c(cc(N)c4ccccc43)oc-2c1`, for which the GI50 was 0.0865 µM and the TGI stood at 0.423 µM.

On to `Clc1ccc2c(c1)C(N1CCNCC1)=Nc1ccccc1O2`, for which the GI50 is 1.22 µM and the TGI came to 2.48 µM.

On to `CC[C@H](Nc1nc(N)nc(C2CC2)c1C#N)c1nc2cccc(NCc3ccc(C(=O)NO)cc3)c2c(=O)n1-c1ccccc1`, for which the GI50 is 1.73 µM and the TGI turned out to be 4.87 µM.

In the case of `CC[C@]1(O)C[C@@H]2CN(CCc3c([nH]c4ccccc34)[C@@](C(=O)OC)(c3cc4c(cc3OC)N(C)[C@H]3[C@@](O)(C(N)=O)[C@H](O)[C@]5(CC)[C@@H]6C[C@@H]6CN6CC[C@]43[C@@H]65)C2)C1`, the GI50 was less than 0.00333 µM and the TGI came out at 0.262 µM.

Take `CCCCNC(=O)Oc1ccc(/C(=C(/CC)Cc2ccccc2)c2ccc(OCCN3CCCCCC3)cc2)cc1`: the GI50 is 21.5 µM and the TGI worked out at 46.9 µM.

With `CNCCNc1nc2ccccc2c2c(=O)c3cc(OC)ccc3sc12`, the GI50 was 1.49 µM and the TGI worked out at 3.03 µM.

For the origin of these results see PubChem BioAssay (NCI).
